As usually defined, the pKi is the negative decadic logarithm of the Ki, by convention in mol/L. Lower therefore signals a large Ki. As a reminder, the pKd is the negative decadic logarithm of the Kd, by convention in mol/L. A high value points to a low Kd. Usually logD stands for lipophilicity at a set pH, counting ionised and neutral species. A low value points to lower lipophilicity.

The results in this text go back to ChEMBL document CHEMBL1159057, “Novel anilinophthalimide derivatives as potential probes for beta-amyloid plaque in the brain” (Bioorg Med Chem, 2010).

For series [1], the target named is T1, Amyloid-beta precursor protein (Homo sapiens, UniProt P05067). Kind of series: Displacement of [125I-N-Methyl-4-(4-bromoanilino)phthalimide from beta-amyloid plaques isolated from Alzheimer's disease patient brain. For orientation: Displacement assays read how much labelled ligand stays bound in the presence of the test substance.
T1 sequence (P05067 whole entry): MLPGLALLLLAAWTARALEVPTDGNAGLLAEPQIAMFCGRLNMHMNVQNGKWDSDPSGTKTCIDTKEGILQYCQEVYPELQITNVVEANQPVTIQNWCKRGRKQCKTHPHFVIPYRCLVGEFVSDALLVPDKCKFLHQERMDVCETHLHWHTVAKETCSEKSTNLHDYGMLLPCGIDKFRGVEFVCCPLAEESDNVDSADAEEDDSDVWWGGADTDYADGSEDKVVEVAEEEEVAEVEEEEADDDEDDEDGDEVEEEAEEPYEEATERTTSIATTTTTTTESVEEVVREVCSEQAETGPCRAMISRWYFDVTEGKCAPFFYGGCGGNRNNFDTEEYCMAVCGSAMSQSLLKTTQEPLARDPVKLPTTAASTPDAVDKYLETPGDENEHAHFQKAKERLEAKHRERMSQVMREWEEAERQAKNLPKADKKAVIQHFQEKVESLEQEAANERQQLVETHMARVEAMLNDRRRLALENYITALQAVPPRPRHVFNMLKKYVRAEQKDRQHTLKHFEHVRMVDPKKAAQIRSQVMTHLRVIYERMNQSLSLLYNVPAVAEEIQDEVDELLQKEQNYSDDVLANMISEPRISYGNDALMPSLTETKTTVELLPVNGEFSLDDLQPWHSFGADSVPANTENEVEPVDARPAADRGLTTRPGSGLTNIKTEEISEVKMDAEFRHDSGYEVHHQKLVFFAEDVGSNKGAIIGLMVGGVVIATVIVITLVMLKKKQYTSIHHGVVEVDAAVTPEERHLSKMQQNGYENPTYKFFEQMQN
A short description of series [2]: Binding affinity to beta-amyloid plaques.
The target of series [3] is T1, Amyloid-beta precursor protein. Kind of series: Binding affinity to beta-amyloid plaques isolated from Alzheimer's disease patient brain at 50 uM by fluorescence micrography.
The subject of series [4] is Blood. Kind of series: Biodistribution in Kunming mouse blood at 2 uCi, iv after 30 mins. The series is classed as ADME, organism-based. The settings on record: in vivo, 0.5 h.
Series [5] deals with Spleen. Kind of series: Biodistribution in Kunming mouse spleen at 2 uCi, iv after 30 mins. Type of series: ADME, organism-based. To be noted: in vivo, 0.5 h.
Series [6] has as its system Brain. Kind of series: Biodistribution in Kunming mouse brain at 2 uCi, iv after 60 mins. Type of series: ADME, organism-based. To be noted: in vivo, 1 h.
The test system of series [7] is Heart. Kind of series: Biodistribution in Kunming mouse heart at 2 uCi, iv after 2 mins. The series is classed as ADME, organism-based. To be noted: in vivo.
The subject of series [8] is Lung. Kind of series: Biodistribution in Kunming mouse lung at 2 uCi, iv after 60 mins. The series is classed as ADME, organism-based. To be noted: in vivo, 1 h.
The test system of series [9] is Lung. Kind of series: Biodistribution in Kunming mouse lung at 2 uCi, iv after 10 mins. The series is classed as ADME, organism-based. To be noted: in vivo.
The subject of series [10] is Heart. Kind of series: Biodistribution in Kunming mouse heart at 2 uCi, iv after 60 mins. The settings on record: in vivo, 1 h. The series is classed as ADME, organism-based.
In series [11] the test system is Liver. Kind of series: Biodistribution in Kunming mouse liver at 2 uCi, iv after 30 mins. The series is classed as ADME, organism-based. To be noted: in vivo, 0.5 h.
The subject of series [12] is Spleen. Kind of series: Biodistribution in Kunming mouse spleen at 2 uCi, iv after 10 mins. Type of series: ADME, organism-based. The settings on record: in vivo.
In series [13] the test system is Kidney. Kind of series: Biodistribution in Kunming mouse kidney at 2 uCi, iv after 30 mins. The series is classed as ADME, organism-based. To be noted: in vivo, 0.5 h.
Series [14] has as its system Kidney. Kind of series: Biodistribution in Kunming mouse kidney at 2 uCi, iv after 2 mins. Type of series: ADME, organism-based. The settings on record: in vivo.
The subject of series [15] is Kidney. Kind of series: Biodistribution in Kunming mouse kidney at 2 uCi, iv after 60 mins. Type of series: ADME, organism-based. To be noted: in vivo, 1 h.
Series [16] has as its system Heart. Kind of series: Biodistribution in Kunming mouse heart at 2 uCi, iv after 30 mins. Type of series: ADME, organism-based. The settings on record: in vivo, 0.5 h.
Series [17] relates to Brain. Kind of series: Biodistribution in Kunming mouse brain at 2 uCi, iv after 30 mins. The series is classed as ADME, organism-based. The settings on record: in vivo, 0.5 h.
Series [18] concerns Spleen. Kind of series: Biodistribution in Kunming mouse spleen at 2 uCi, iv after 2 mins. The series is classed as ADME, organism-based. To be noted: in vivo.
The test system of series [19] is Lung. Kind of series: Biodistribution in Kunming mouse lung at 2 uCi, iv after 2 mins. The settings on record: in vivo. The series is classed as ADME, organism-based.
The test system of series [20] is Brain. Kind of series: Biodistribution in Kunming mouse brain at 2 uCi, iv after 10 mins. To be noted: in vivo. Type of series: ADME, organism-based.
Series [21] deals with Liver. Kind of series: Biodistribution in Kunming mouse liver at 2 uCi, iv after 10 mins. The series is classed as ADME, organism-based. To be noted: in vivo.
Series [22] has as its system Lung. Kind of series: Biodistribution in Kunming mouse lung at 2 uCi, iv after 30 mins. Type of series: ADME, organism-based. The settings on record: in vivo, 0.5 h.
The test system of series [23] is Heart. Kind of series: Biodistribution in Kunming mouse heart at 2 uCi, iv after 10 mins. The series is classed as ADME, organism-based. The settings on record: in vivo.
Series [24] concerns Blood. Kind of series: Biodistribution in Kunming mouse blood at 2 uCi, iv after 10 mins. The series is classed as ADME, organism-based. To be noted: in vivo.
The subject of series [25] is Blood. Kind of series: Biodistribution in Kunming mouse blood at 2 uCi, iv after 60 mins. The series is classed as ADME, organism-based. The settings on record: in vivo, 1 h.
The subject of series [26] is Spleen. Kind of series: Biodistribution in Kunming mouse spleen at 2 uCi, iv after 60 mins. The series is classed as ADME, organism-based. The settings on record: in vivo, 1 h.
In series [27] the test system is Blood. Kind of series: Biodistribution in Kunming mouse blood at 2 uCi, iv after 2 mins. The series is classed as ADME, organism-based. The settings on record: in vivo.
The subject of series [28] is Brain. Kind of series: Biodistribution in Kunming mouse brain at 2 uCi, iv after 2 mins. The series is classed as ADME, organism-based. The settings on record: in vivo.
Series [29] deals with Liver. Kind of series: Biodistribution in Kunming mouse liver at 2 uCi, iv after 60 mins. To be noted: in vivo, 1 h. The series is classed as ADME, organism-based.
Series [30] in a line: Partition coefficient, log P at pH 7.4 phosphate buffer. Type of series: physicochemical.
Series [31] relates to Liver. Kind of series: Biodistribution in Kunming mouse liver at 2 uCi, iv after 2 mins. Type of series: ADME, organism-based. The settings on record: in vivo.
The subject of series [32] is Kidney. Kind of series: Biodistribution in Kunming mouse kidney at 2 uCi, iv after 10 mins. To be noted: in vivo. Type of series: ADME, organism-based.

pKd, pKi: −log10 of the molar value. Calls of active or inactive are those of the source. The calls are words filed in the database; no cut-off is given here. Where only a bound is given, the exact number is not on record here.

In turn, `Nc1c(/N=N/c2ccc(-c3ccc(/N=N/c4cc(S(=O)(=O)O)c5ccccc5c4N)cc3)cc2)cc(S(=O)(=O)O)c2ccccc12` [CONGO RED] showed a pKi in series [1] of less than 6.00.
Turning to `CC(=C(C#N)C#N)c1ccc2cc(N(C)CC[18F])ccc2c1`, the pKi in series [2] was 8.57.
As to `Cc1ccc(Nc2ccc3c(c2)C(=O)N(C)C3=O)cc1`, the pKi in series [1] was 8.39. Moreover, in series [3], the outcome was Active.
In turn, `COc1ccc(Nc2ccc3c(c2)C(=O)N(C)C3=O)cc1` gave a pKi in series [1] of 7.79.
As to `COc1ccc2cc([C@H](C)C(=O)O)ccc2c1` [NAPROXEN], the pKi in series [2] is 8.24.
As to `CN1C(=O)c2ccc(Nc3ccc([125I])cc3)cc2C1=O`, the Drug uptake with Blood [4] is reported as 2.69 % ID/g; in the series on Spleen [5], 3.7 % ID/g; in the series with Brain [6], 0.59 % ID/g; in the series on Heart [7], 7.4 % ID/g; in the series on Lung [8], 2.82 % ID/g; in the series on Lung [9], 6.35 % ID/g. Moreover, the Drug uptake is recorded as 2.24 % ID/g in the series on Heart [10]; 5.84 % ID/g in the series on Liver [11]; 6.87 % ID/g with Spleen [12]; 3.59 % ID/g with Kidney [13]; 9.81 % ID/g in the series on Kidney [14]; 2.68 % ID/g in the series with Kidney [15]. In addition, the Drug uptake in the series with Heart [16] worked out at 2.83 % ID/g; with Brain [17], 1.16 % ID/g; in the series with Spleen [18] it was 5.64 % ID/g; in the series on Lung [19] it was 6.77 % ID/g; in the series with Brain [20], 3.41 % ID/g; with Liver [21], 14.38 % ID/g. Besides, the Drug uptake with Lung [22] was determined as 3.47 % ID/g; in the series with Heart [23] it was 3.41 % ID/g; in the series on Blood [24], 2.74 % ID/g; with Blood [25], 2.78 % ID/g; in the series with Spleen [26] it was 2.92 % ID/g; in the series on Blood [27] it was 2.47 % ID/g. In addition, the Drug uptake is 5.16 % ID/g in the series on Brain [28], 3.37 % ID/g in the series on Liver [29], 11.98 % ID/g with Liver [31] and 6.55 % ID/g in the series on Kidney [32]. The compound further gave a pKd in [1] of 9.68. The same compound displayed a logD in series [30] of 2.16.
In [1], `CN1C(=O)c2ccc(Nc3ccc(I)cc3)cc2C1=O` gave a negative logarithm of the Ki (pKi) of 9.05. Further, the result in series [3] was Active.
In series [2], `[11CH3]Nc1ccc(-c2nc3ccc(O)cc3s2)cc1` [PITTSBURGH COMPOUND B] had a pKi of 8.37.
The same measure, in the same setting: the figure for `CN(C)c1ccc(-c2cn3cc([123I])ccc3n2)cc1` is […].
Compound `CN1C(=O)c2ccc(Nc3ccccc3)cc2C1=O` had a pKi in series [1] of 8.12.
`CN1C(=O)c2ccc(Nc3ccc(Br)cc3)cc2C1=O` gave a pKi in series [1] of 8.42. Further, the result in series [3] was Active.
As to `CN1C(=O)c2ccc(Nc3ccc(O)cc3)cc2C1=O`, the pKi in series [1] is 7.71.
Same read-out and setting: for `O=C1NC(=O)c2cc(Nc3ccccc3)c(Nc3ccccc3)cc21` [DAPH] the value was less than 6.00.
For the compound `CN1C(=O)c2cc(Nc3ccccc3)c(Nc3ccccc3)cc2C1=O`, in series [1], the pKi is less than 6.00.
